“Also recorded” adds a separate entry of the source.
What was measured:
[1] = tested on: human dermal microvascular endothelial cells (HMVECs); test: In vitro endothelial cell permeability assay (passage of FITC-dextran through HMVEC monolayer); type: cell-based
Protocol: Permeability Assays. In vitro permeability assay was performed as previously described (48). Briefly, HMVEC were seeded on collagen-coated transwells ([…], PTFE; Corning), and allowed to grow as a 3-d-old mature monolayer. Following overnight starvation, 500 μL and 100 μL of conditioned medium were added for 30 min (37° C.) to the bottom and top chamber, respectively. A total of 100 μL of 1 mg/mL FITC dextran (molecular weight=40,000; Invitrogen) was added for 30 min. Fluorescence was quantified using a SpectraMax M5 Microplate Reader (Molecular Devices) with excitation at 494 nm and emission at 521 nm.

Angptl4 [2] = test: OIR mouse model: RT-PCR of Angptl4 mRNA in neurosensory retina; type: in vivo; conditions: OIR mice P12-P14, daily intraperitoneal digoxin
Protocol: (§1) Oxygen-Induced Retinopathy (OIR). […] At P12 the mice were returned to room air.
(§2) Quantitative Real-Time RT-PCR. RNA was isolated from culture cells or retinas with RNeasy Mini Kit (Qiagen) and cDNA prepared using MuLV Reverse Transcriptase (Applied Biosystems, Carlsbad, Calif.). Quantitative real-time PCR was performed with Power SYBR Green PCR Master Mix (Applied Biosystems) and MyiQ Real-Time PCR Detection System (Bio Rad). Normalization was done using cyclophilin A for mouse tissue and cell lines and β-actin for human cell lines. Primers for qPCR include: human VEGF, forward—[…] (SEQ ID NO:1) and reverse—[…] (SEQ ID NO:2); human ANGPTL4, forward—[…] (SEQ ID NO:3) and reverse—[…] (SEQ ID NO:4); human β-actin, forward—[…] (SEQ ID NO:5) and reverse—[…](SEQ ID NO:6); mouse VEGF, forward—[…] (SEQ ID NO:7) and reverse—[…](SEQ ID NO:8); mouse ANGPTL4, forward—[…] (SEQ ID NO:9) and reverse—[…] (SEQ ID NO:10); mouse cyclophilin A, forward—[…] (SEQ ID NO:11) and reverse—[…] (SEQ ID NO:12).

Vegf [3] = test: OIR mouse model: RT-PCR of Vegf mRNA in neurosensory retina; type: in vivo; conditions: OIR mice P12-P14, daily intraperitoneal digoxin
Protocol: as §1, §2

ANGPTL4 [4] = test: MIO-M1 Müller cells: ANGPTL4 mRNA (RT-PCR) and protein (Western blot/ELISA); type: cell-based, human; conditions: digoxin pretreatment (100 ng as printed), 2 hours prior hypoxia
Protocol: (§3) Cell Culture and Reagents. MIO-M1 cells were a generous gift from Astrid Limb (University College London Institute of Ophthalmology). Isolation of primary Müller cells was performed as previously described (51). Primary human dermal microvascular endothelial cells (HMVEC) were obtained from Lonza and cultured according the manufacter's protocols. Recombinant ANGPTL4 and VEGF, and ANGPTL4 and VEGF ELISA kits were obtained from R&D Systems. The KDR inhibitor, SU1498, and rapamycin were obtained from Calbiochem. Digoxin was obtained from Sigma. Predesigned control (Scrambled) and ANGPTL4 and HIF-1β siRNA sequences were obtained from Qiagen. AdLacZ and AdCAS have been previously described (26).
(§4) Quantitative Real-Time RT-PCR. RNA was isolated from culture cells or retinas with RNeasy Mini Kit (Qiagen) and cDNA prepared using MuLV Reverse Transcriptase (Applied Biosystems, Carlsbad, Calif.). Quantitative real-time PCR was performed with Power SYBR Green PCR Master Mix (Applied Biosystems) and MyiQ Real-Time PCR Detection System (Bio Rad). Normalization was done using cyclophilin A for mouse tissue and cell lines and β-actin for human cell lines. Primers for qPCR include: human VEGF, forward—[…] (SEQ ID NO:1) and reverse—[…] (SEQ ID NO:2); human ANGPTL4, forward—[…] (SEQ ID NO:3) and reverse—[…] (SEQ ID NO:4); human β-actin, forward—[…] […]

GFAP = test: OIR mouse model: GFAP expression in Müller cells; type: in vivo; conditions: OIR mice, administration of digoxin
Text: as §1

inner retina vessels [5] = test: OIR mouse model: vascular permeability / retinal edema (inner retinal cysts, extravascular albumin); type: in vivo; conditions: P13 OIR mice, digoxin 2 mg/kg daily intraperitoneal
Protocol: as §1
(§5) Quantitation of vascular permeability in the retina was assessed by examining 4 high powered fields of the posterior retina from three animals and counting the number of CD31-labled inner retina vessels in the posterior retina that had visible adjacent extravascular albumin (detected by immunofluorescence) as a percent of the total vessels in each field.
(§6) Immunohistochemistry and Immunofluorescence. Immunohistochemical detection of extravascular albumin (Cedarlane-Nordic) was performed on cryopreserved mouse tissue sections using a nitroblue tetrazolium (NBT) development system using Streptavidin alkaline phosphatase (APase) as previously described (53) Immunohistochemical detection of HIF-1 alpha (Abcam), human and murine ANGPTL4 (Abcam and Lifespan BioSciences, respectively), VEGF (Santa Cuz), CD34 (Covance), and GFAP (Sigma) were performed in paraffin embedded human tissue (obtained from the Wilmer Eye Institute Ocular Pathology Archives with approval from the Johns Hopkins School of Medicine Internal Review Board) and mice cryopreserved tissue using ABC system (Dako) as previously described (4).

VEGF [6] = test: MIO-M1 Müller cells: VEGF mRNA (RT-PCR) and secreted protein (ELISA); type: cell-based, human; conditions: digoxin 100 nM, 2 hours prior to hypoxia; 8 hours hypoxia
Protocol: as §3, §4

inner retina vessels [7] = test: Intravitreal injection of recombinant protein into the mouse eye: retinal vascular permeability; type: in vivo
Protocol: […]. Intraocular injections with 1 μl of rmVEGF or rmANGPTL4 (200 ng/ul) were performed with a nanofil syringe (World Precision Instruments) using a 36G beveled needle. Intraocular injections with 1 μl of AdLacZ or AdCAS (2×10^12 VP/mL) were performed with pulled-glass micropipettes and a Harvard pump microinjection apparatus as previously described (52).
as §5, §6

angiogenesis = test: Promotion of angiogenesis / NV in vitro and in vivo (Example 9, cornea pocket assay)
Text: Cell Culture: ARPE19, human ES derived RPE cells, primary murine RPE cells. Rat: Subretinal lipid hydroperoxide CNV Model. Assays used included Cornea pocket assay, Western Blot and RT-PCR, and Immunohistochemistry and Immunofluorescence. Patient Samples: ELISA analysis of ANGPTL4 levels in aqueous humor.

mouse ear vasculature = test: Modified Miles assay, vascular permeability in the mouse ear; type: in vivo; conditions: intradermal injection of ANGPTL4 0.2 μg vs PBS
Protocol: In vivo permeability was assessed using a modified Miles assay as previously described (48). Briefly, Evan Blue dye was injected into mouse tail veins (200 μL of 12 mg/ml solution in PBS). After 5 minutes, animals were anesthetized using Tribromoethanol. 20 ul 0.2 ug VEGF or 0.2 ug ANGPTL4 was injected intradermally into the right ear (PBS was injected into left ear as a control). After 8 minutes, photographs were taken. Levels of Evans blue dye was then extracted from mouse ear in 1 mL of formamide at 55° C. for 16 hours and dye content quantified at 610 nm using a spectrophotometer (48).

CC(C)c1cc(/C=C(\C#N)C(=O)NCCCc2ccccc2)cc(C(C)C)c1O [SU1498]
endothelial cell permeability promoted by 100 ng recombinant human VEGF ([1]; SU1498 5 μM pre-treatment of endothelial cells): completely blocked the induction of endothelial cell permeability; also recorded: abolishes the promotion of endothelial cell permeability by 100 ng of recombinant human VEGF
endothelial cell permeability promoted by conditioned media from hypoxic MIO-M1 cells ([1]; SU1498 5 μM pre-treatment of endothelial cells, 8 hours hypoxia): only a partial inhibition of endothelial cell permeability; also recorded: only partially blocks the promotion of endothelial cell permeability

C[C@H]1O[C@@H](O[C@H]2[C@@H](O)C[C@H](O[C@H]3[C@@H](O)C[C@H](O[C@H]4CC[C@@]5(C)[C@H](CC[C@@H]6[C@@H]5C[C@@H](O)[C@]5(C)[C@@H](C7=CC(=O)OC7)CC[C@]65O)C4)O[C@@H]3C)O[C@@H]2C)C[C@H](O)[C@@H]1O [digoxin]
endothelial cell permeability promoted by conditioned media from hypoxic MIO-M1 cells ([1]; MIO-M1 pre-treated with 100 nM digoxin 2 hours prior to 8 hour hypoxia): potently blocked the property of the conditioned media to promote an increase in endothelial cell permeability; also recorded: inhibits the promotion of endothelial cell permeability by hypoxic MIO-M1 cells
induction of Angptl4 mRNA (Angptl4 [2]): completely abolished the induction of Angptl4
induction of Vegf mRNA (Vegf [3]): only partially inhibited the induction of Vegf
ANGPTL4 RNA and protein induced by hypoxia (ANGPTL4 [4]): inhibited
GFAP expression (GFAP): not affected
vascular permeability (inner retinal cysts, extravasated albumin) (inner retina vessels [5]): decrease in vascular permeability; also recorded: inhibits the increase in inner retinal cysts and extravasated albumin
VEGF mRNA expression and protein secretion (VEGF [6]): inhibited VEGF mRNA expression and protein secretion; also recorded: inhibits

VEGF
endothelial cell permeability ([1]; VEGF 100 ng): promotes endothelial cell permeability

B1: rmANGPTL4: recombinant murine ANGPTL4 injected intravitreally (protein, UniProt Q9Z1P8 24-410, looked up)
Angiopoietin-related protein 4: QGRPAQPEPPRFASWDEMNLLAHGLLQLGHGLREHVERTRGQLGALERRMAACGNACQGPKGKDAPFKDSEDRVPEGQTPETLQSLQTQLKAQNSKIQQLFQKVAQQQRYLSKQNLRIQNLQSQIDLLAPTHLDNGVDKTSRGKRLPKMTQLIGLTPNATHLHRPPRDCQELFQEGERHSGLFQIQPLGSPPFLVNCEMTSDGGWTVIQRRLNGSVDFNQSWEAYKDGFGDPQGEFWLGLEKMHSITGNRGSQLAVQLQDWDGNAKLLQFPIHLGGEDTAYSLQLTEPTANELGATNVSPNGLSLPFSTWDQDHDLRGDLNCAKSLSGGWWFGTCSHSNLNGQYFHSIPRQRQERKKGIFWKTWKGRYYPLQATTLLIQPMEATAAS
inner retinal cysts (H & E) (inner retina vessels [7]; 200 ng rmANGPTL4 intravitreal vs PBS): increased inner retinal cysts
extravasation of albumin (immunohistochemistry) (inner retina vessels [7]; 200 ng rmANGPTL4 intravitreal vs control): extravasation of albumin
vascular permeability (leakage of plasma and albumin) (inner retina vessels [7]; rmANGPTL4 intravitreal, retinas after 48 hours): marked and statistically significant increase in vascular permeability

B2: ANGPTL4: Recombinant angiopoietin-like 4 protein obtained from R&D Systems (protein, UniProt Q9BY76 26-406, looked up)
Angiopoietin-related protein 4: GPVQSKSPRFASWDEMNVLAHGLLQLGQGLREHAERTRSQLSALERRLSACGSACQGTEGSTDLPLAPESRVDPEVLHSLQTQLKAQNSRIQQLFHKVAQQQRHLEKQHLRIQHLQSQFGLLDHKHLDHEVAKPARRKRLPEMAQPVDPAHNVSRLHRLPRDCQELFQVGERQSGLFEIQPQGSPPFLVNCKMTSDGGWTVIQRRHDGSVDFNRPWEAYKAGFGDPHGEFWLGLEKVHSITGDRNSRLAVQLRDWDGNAELLQFSVHLGGEDTAYSLQLTAPVAGQLGATTVPPSGLSVPFSTWDQDHDLRRDKNCAKSLSGGWWFGTCSHSNLNGQYFRSIPQQRQKLKKGIFWKTWRGRYYPLQATTMLIQPMAAEAAS
endothelial cell permeability ([1]; recombinant human ANGPTL4 2.5 or 5 μg): potently induced endothelial cell permeability
endothelial cell permeability ([1]; recombinant human ANGPTL4 2.5 or 5 μg, listed as recombinant human ANGPTL4): promotes endothelial cell permeability
promotion of angiogenesis (angiogenesis): promoted angiogenesis both in vitro and in vivo
vascular permeability (Evans blue dye, 610 nm) (mouse ear vasculature): remarkable increase in vascular permeability; also recorded: marked increase in dye

— patent US20150071941A1, “TREATMENT OF ISCHEMIC RETINOPATHIES” (THE JOHNS HOPKINS UNIVERSITY, priority 2012, published 2015)
